Assay [1] deals with human T cell lines primed with recombinant Can f I. Kind of assay: Secondary human T cell proliferation assay (3H thymidine incorporation). Type of assay: cell-based. Conditions: for percentage of positive responders (T cell stimulation index of at least two): tested dog allergic individuals. An excerpt:
In one embodiment, peptides which have Can f I or Can f II T cell stimulating activity (i.e., the peptide comprises at least one T cell epitope) can be identified using an algorithm which predicts the presence of T cell epitopes in a protein sequence, such as the algorithm described by Hill et al., Journal of Immunology, 147:189-197 (1991). The algorithm of Hill et al. predicts the location of T cell epitopes in a protein by the presence of certain patterns within the sequence which are likely to bind MHC and therefore may contain T cell epitopes. Based on the Hill et al. algorithm, two 13 amino acid peptides (discussed in Example 10) have been identified and produced synthetically. Such peptides were tested for T cell activity as described above (e.g., by measuring cellular uptake of tritiated thymidine). Specifically, in Example 10, human T cell stimulating activity was tested by culturing T cells obtained from an individual sensitive to Can f I (i.e., an individual who has an IgE mediated immune response to Can f I) with a peptide derived from Can f I and proliferation of T cells in response to the peptide was determined, e.g., by measuring cellular uptake of tritiated thymidine. Stimulation indices for responses by T cells to peptides were calculated as the maximum CPM in response to a peptide divided by the control CPM. A stimulation index (S.I.) equal to or greater than two times the background level was considered “positive”. Positive results were used to calculate the mean stimulation index for each peptide for the group of patients tested (See FIG. 25). Preferred peptides of this invention comprise at least one T cell epitope and have a mean T cell stimulation index of greater than or equal to 2.0. A peptide having a mean T cell stimulation index of greater than or equal to 2.0 in a significant number of dog dander allergen sensitive patients tested is considered useful as a therapeutic agent. Preferred peptides have a mean T cell stimulation index of at least 2.5, more preferably at least 3.0, more preferably at least 3.5, more preferably at least 4.0, more preferably at least 5.0 and most preferably at least about 6. For example, peptides having a Can f I activity and having a mean T cell stimulation index of at least 5, as indicated by data shown in FIG. 25, include Construct 1 (SEQ ID NO: 105), Construct 2 (SEQ ID NO: 106), and Construct 3 (SEQ ID NO:107). T cell epitopes can also be predicted and determined as described above for peptides derived from Can f II.
In addition, preferred peptides have a positivity index (P.I.) of at least about 60, more preferably about 100, more preferably at least about 200 and most preferably at least about 300. The positivity index for a peptide is determined by multiplying the mean T cell stimulation index by the percent of individuals, in a population of individuals sensitive to dog dander allergens (e.g., preferably a population of at least 12 individuals, more preferably a population of at least 30 individuals or more), who have a T cell stimulation index to such peptide of at least 2.0. Thus, the positivity index represents both the strength of a T cell response to a peptide (S.I.) and the frequency of a T cell response to a peptide in a population of individuals sensitive to dog dander allergens.
In order to perform in vitro assays of human T cell proliferative response to Can f I and the five Can f I peptides described above, whole blood obtained from subjects allergic to Can f I in a skin prick test was passed through a Lymphocyte Separation Media (LSM) to remove platelets, red blood cells and granulocytes. The resulting peripheral blood mononuclear cells (PBMC) were stimulated with 50 μg/ml of recombinant Can f I produced as described in Example 2 for 6 days in RPMI 1640 medium supplemented with 5% heat inactivated human AB serum, 2 mM L-glutamine,10 mM HEPES, 50 μM 2-mercapto-ethanol and 100 U/ml penicillin and streptomycin. […]

Assay [2] relates to human IgE. As to the kind of experiment: Western blot of protein preparations probed with patient plasma IgE. As to conditions: plasma of dog allergic patient #901, 1:20 dilution; 5 μg/lane. Type of assay: binding. How it is done:
Western Blot analysis of four different protein preparations as potential sources Can f I was performed. The four different prepparations used for Western blotting were: dog hair extract, dog saliva, bacterially expressed rCan f I (used for the ELISA) and rCan f I as expressed in a mammalian cell culture system. These preparations were loaded on a 15% acrylamide SDS-PAGE (lanes 1-4, respectively) at 5 μg/lane. The protein concentrations were based on the Bicinchoninic acid (BCA) assay (Pierce, Rockford, Ill.). Following electrophoresis, the proteins were transferred to nitrocellulose and stained with India Ink. The nitrocellulose sections were blocked by incubation in Tween solution with 1% milk/1% BSA for 30 minutes room temperature, then probed with patient #901 plasma or negative control patient #250 at a 1:20 dilution in tween mild solution. This first antibody incubation was carried out overnight at room temperature. Biotinylated goat anti-human IgE (KPL) was used as the second antibody at a 1:5000 dilution for a two hour incubation. Streptavidin-HRPO (1:20,000 dilution) and the ECL Western Blot Detection system (Amersham, Arlington Heights, Ill.) were used for detection by chemiluminescence. A 20 second exposure was performed and the film developed. The results from this assay show no recognition of the protein preparations by patient #250 IgE. […]
Background: In western blotting, separated proteins are transferred to a membrane and probed.

Assay [3] deals with human IgE. As to the kind of experiment: Direct binding of human IgE to recombinant Can f I by ELISA. How it is done:
An ELISA plate (IMMULON II Dynatech, Chantilly, Va.) was coated with bacterially expressed recombinant Can f I, (rCan f I) at 0.5 μg/well in PBS-Tween and incubated overnight at 4° C. The coating antigen was removed and the wells were blocked with 0.5% gelatin in PBS, 200 μl/well for two hours at room temperature. Plasma from a skin test positive dog allergic patient, #901, was serially diluted with PBS-Tween and 100 μl was added per well and incubated overnight at 4° C. (the plasma dilutions were tested in duplicate). The second antibody (biotinylated goat anti-human IgE 1:1000, Kirkegaard & Perry Laboratories) was added at 100 μl/well for one hour at room temperature. This solution was removed and streptavidin-HRPO at 1:10,000, (Southern Biotecnology Associates, Inc. Birmingham, Ala.) was added for one hour at room temperature. TMB Membrane Peroxidase Substrate system (Kirkegaard & Perry Laboratories) was freshly mixed and added at 100 μl. The color was allowed to develop for 2-5 minutes. The reaction was stopped by the addition of 100 μl/well of 1M phosphoric acid. The plate was read on a Mircoplate EL 310 Autoreader (Biotek Instruments, Winooski, Vt.) with a 450 nm filter. The absorbance levels of duplicate wells were averaged. […] A known negative patient (#250) was also tested and shown to be negative by this assay.

Assay [4] concerns IgE binding to dog dander extracts. As to conditions: RAST analysis; cited from earlier work.
Assay [5] deals with human IgE. Kind of assay: Direct binding ELISA of human IgE to native and recombinant Can f II. How it is done: Plasma samples from 14 dog-allergic patients (skin test 4+) were assayed for IgE binding to native Can f II and rCan f II. An ELISA plate (Immulon II Dynatech, Chantilly, Va.) was coated with native and bacterially expressed recombinant Can f II at 0.5 μg/well in PBS-Tween and incubated overnight at 4° C. The coating antigen was removed and the wells were blocked with 0.5% gelatin in PBS, 200 μl/well for two hours at room temperature. Binding of human IgE to the coating antigen was detected using biotinylated goat-anti-human IgE, streptavidin linked to peroxidase and TMB substrate. Reactions were read on a plate reader at 450 nm (A450). Of 14 plasma samples tested for IgE to native Can f II, 5 contained detectable antibody binding (FIG. 22A), with plasma from patients #901 and #227 containg the highest levels. Similarly, of 23 plasma samples tested for IgE to recombinant, bacterially expressed Can f II, several contained detectable antibody binding (FIGS. 22B and C).
On the technique in general: In an ELISA, binding on a coated surface is turned into a signal by an enzyme label.

Assay [6] deals with IgE of dog allergic patients. As to conditions: purified allergen; cited from earlier work.

For “A0095: 13 amino acid synthetic peptide, Can f I amino acids 7 through 19 (SEQ ID NO:108) (GKWYLKAMTADQE) [Construct A0095]”, the “positivity index (mean S.I. x percent positive responders)” value in assay [1] (FIG. 10) was 129. Also, the “mean T cell stimulation index (S.I.)” value in assay [1] (mean of positive responses (S.I. >= 2), T cell lines from dog allergic patients primed with rCan f I, FIG. 25) is 3.0. The “percentage of positive responders (T cell stimulation index of at least two)” value in assay [1] is 43%.

“A0096: 13 amino acid synthetic peptide, Can f I amino acids 42 through 54 (SEQ ID NO:109) (AKITMLTNGQCQN) [Construct A0096]”: in assay [1], the “percentage of positive responders (T cell stimulation index of at least two)” value amounted to 43%.

Take “Construct 1: recombinant fragment of Can f I, amino acids 1 through 65 (SEQ ID NO: 105), expressed in E. coli with His6”: in assay [1], the “percentage of positive responders (T cell stimulation index of at least two)” value is 64%.

Consider “Construct 2: recombinant fragment of Can f I, amino acids 56 through 108 (SEQ ID NO: 106), expressed in E. coli (TVVLHKTSEPGKYTAYEGQRVVFIQPSPVRDHYILYCEGELHGRQIRMAKLLG)”, for which the “percentage of positive responders (T cell stimulation index of at least two)” value in assay [1] was 73%.

Regarding “Construct 3: recombinant fragment of Can f I, amino acids 90 through 148 (SEQ ID NO: 107), expressed in E. coli”, in assay [1], the “percentage of positive responders (T cell stimulation index of at least two)” value is 82%.

Regarding “mammalian expressed rCan f I: recombinant Can f I expressed in a mammalian cell culture system (NIH 3T3), COOH-terminal His6”, in the assay with human IgE [2], the “IgE binding on Western blot” value is “extremely faint”.

Take “rCan f I: bacterially expressed recombinant Can f I dog allergen with His6 reporter group”: the “percentage of positive responders (T cell stimulation index of at least two)” value in assay [1] came out at 89%. In the assay on human IgE [3] (plasma of dog allergic patient #901 at 1/162 dilution, antigen 0.5 μg/well), the “IgE binding level relative to background” value was “two-fold above background”. The “IgE binding, negative control patient” value in the assay with human IgE [3] (plasma of known negative patient #250) was “negative”. In addition, the “IgE binding on Western blot” value in the assay on human IgE [2] was “distinct binding”.

B1: Can f I: major dog allergen of Canis familiaris; mature protein of SEQ ID NO: 2; immunoaffinity purified in cited work (protein)
chain: MKTLLLTIGFSLIAILQAQDTPALGKDTVAVSGKWYLKAMTADQEVPEKPDSVTPMILKAQKGGNLEAKITMLTNGQCQNITVVLHKTSEPGKYTAYEGQRVVFIQPSPVRDHYILYCEGELHGRQIRMAKLLGRDPEQSQEALEDFREFSRAKGLNQEILELAQSETCSPGGQ
Turning to B1, in assay [4], the “depletion of IgE binding to dog dander extracts” value is 50-70%.

B2: Can f II: minor dog dander allergen, affinity purified native protein (de Groot et al.) (protein)
chain: EGNHEEPQGGLEELSGRWHSVALASNKSDLIKPWGHFRVFIHSMSAKDGNLHGDILIPQDGQCEKVSLTAFKTATSNKFDLEYWGHNDLYLAEVDPKSYLILYMINQYNDDTSLVAHLMVRDLSRQQDFLPAFESVCEDIGLHKDQIVVLSDDDRCQGSRD
As to B2, the “number of plasma samples with detectable IgE antibody binding” value with human IgE [5] (of 14 plasma samples from dog-allergic patients (skin test 4+), FIG. 22A) was found to be 5. Also, the “competition with the IgE directed against dog dander extract” value in assay [4] is on record as 23%. Further, the “dog allergic patients whose IgE reacts with the allergen” value in assay [6] is 66%.

B3: recombinant, bacterially expressed Can f II: bacterially expressed recombinant Can f II with His6 reporter group (protein)
chain: EGNHEEPQGGLEELSGRWHSVALASNKSDLIKPWGHFRVFIHSMSAKDGNLHGDILIPQDGQCEKVSLTAFKTATSNKFDLEYWGHNDLYLAEVDPKSYLILYMINQYNDDTSLVAHLMVRDLSRQQDFLPAFESVCEDIGLHKDQIVVLSDDDRCQGSRD
modifications: left off: small tags and cut ends
notes: bacterially expressed recombinant Can f II with His6 reporter group
Regarding B3, the “number of plasma samples with detectable IgE antibody binding” value in the assay with human IgE [5] (of 23 plasma samples, FIGS. 22B and C) was “several”.

Values taken from patent US6489118B2, “Allergenic proteins and peptides from dog dander and uses therefor” (ImmuLogic Pharmaceutical Corporation, priority 1992, dated 2002).
